From patent US9156831B2, “Chemical compounds” (ASTRAZENECA AB, priority 2013, dated 2015)

Key:
SW948 = experiment: Cell proliferation assay (MTS); assay type: cell-based, human
Procedure: (§1) The sensitivity of a panel of human cancer cell lines to the effects of compounds was determined in a standard proliferation assay.
(§2) Cells were plated in 96 well plates at densities of 1000-6000 cells per well in RPMI media containing 10% FBS. After incubation at 37° C. for 16 hours, various concentrations of compound were added to the assay plates. After incubation for an additional 72 h, the viable cells were determined by the addition of MTS reagent (Promega #3582) to each well for 2 h. MTS is a tetrazolium salt that is bioreduced by metabolically active cells in the presence of an electron coupling reagent to formazan. The formazan product was then quantitated by absorbance at 490 nm, as an indicator of the relative number of live cells. In order to determine the GI50 (concentration at which growth of cells was inhibited by 50%) the relative number of cells present at the time of drug addition was determined by comparison with the MTS readout before the drug was added, and this value was subtracted from the 72 hr value of untreated cells as a measure of cell growth during the assay.

PNT1A = experiment: Cell proliferation assay (MTS); assay type: cell-based, human
Procedure: as §1, §2

RS411 = experiment: Cell proliferation assay (MTS); assay type: cell-based, human
Procedure: as §1, §2

HX147 = experiment: Cell proliferation assay (MTS); assay type: cell-based, human
Procedure: (§3) The sensitivity of a panel of human cancer cell lines to the effects of compounds was determined in a standard proliferation assay. Cell lines were sourced through the AstraZeneca Cell Bank.
as §2

H2085 = experiment: Cell proliferation assay (MTS); assay type: cell-based, human
Procedure: as §1, §2

AZ521 = experiment: Cell proliferation assay (MTS); assay type: cell-based, human
Procedure: as §1, §2

SNU398 = experiment: Cell proliferation assay (MTS); assay type: cell-based, human
Procedure: as §1
(§4) Cells were plated in 96 well plates at densities of 1000-6000 cells per well in RPMI media containing 10% FBS. After incubation at 37° C. for 16 hours, various concentrations of compound were added to the assay plates. After incubation for an additional 72 h, the viable cells were determined by the addition of MTS reagent (Promega #3582) to each well for 2 h. […] The formazan product was then quantitated by absorbance at 490 nm, as an indicator of the relative number of live cells. In order to determine the GI50 (concentration at which growth of cells was inhibited by 50%) the relative number of cells present at the time of drug addition was determined by comparison with the MTS readout before the drug was added, and this value was subtracted from the 72 hr value of untreated cells as a measure of cell growth during the assay.

MDAMB157 = experiment: Cell proliferation assay (MTS); assay type: cell-based, human
Procedure: as §1, §2

CALU6 = experiment: Cell proliferation assay (MTS); assay type: cell-based, human
Procedure: as §3, §2

PC9 = experiment: Cell proliferation assay (MTS); assay type: cell-based, human
Procedure: as §1, §2

N87 = experiment: Cell proliferation assay (MTS); assay type: cell-based, human
Procedure: as §3, §4

H520 = experiment: Cell proliferation assay (MTS)
Procedure: as §1, §2

OCUM1 = experiment: Cell proliferation assay (MTS); assay type: cell-based, human
Procedure: as §3, §2

H526 = experiment: Cell proliferation assay (MTS); assay type: cell-based, human
Procedure: as §1, §2

MCF7 xenograft = experiment: Tumour growth inhibition, MCF7 xenograft model; assay type: in vivo, mouse; settings: Example 3 alone 25 mg/kg twice daily every day; FIG. 12
Procedure: MCF7 is an estrogen receptor positive breast tumour cell line carrying a mutation in the PIKC3CA gene (E545K). […] SCID mice (AZ UK) were transplanted subcutaneously (s.c.) with human breast adenocarcinoma cell line MCF7 (ICRF London) to determine anti-tumour activity of PI3 kinase inhibitors. Mice were implanted with a 0.5 mg 21 day oestrogen pellet (Innovative Research of America) 24 hours prior to cell implantation. 5×10^6 cells in 50% matrigel (BD Bioscience) were injected s.c. on the left flank of the animals.
Animals were randomised into groups of 10-15 when tumours reached a volume of ˜200-300 mm^3 and treatment commenced. Animals were dosed for 3-4 weeks by peroral route, with compound in a suitable vehicle at defined doses and schedules. Tumours were measured two-three times weekly by caliper and volume of tumours calculated using elliptical formula (pi/6×width×width×length).

T47D = experiment: Cell proliferation assay (MTS); assay type: cell-based, human
Procedure: as §1, §2

SKMES1 = experiment: Cell proliferation assay (MTS); assay type: cell-based, human
Procedure: as §1, §2

A549 = experiment: Cell proliferation assay (MTS); assay type: cell-based, human
Procedure: as §1, §2

MOLM16 = experiment: Cell proliferation assay (MTS); assay type: cell-based, human
Procedure: as §1, §2

HCC1806 = experiment: Cell proliferation assay (MTS); assay type: cell-based, human
Procedure: as §1, §2

MDAMB468 = experiment: Cell proliferation assay (MTS); assay type: cell-based, human
Procedure: as §1, §4

HCC1954 = experiment: Cell proliferation assay (MTS); assay type: cell-based, human
Procedure: as §1, §2

MKN74 = experiment: Cell proliferation assay (MTS); assay type: cell-based, human
Procedure: as §1, §2

H2286 = experiment: Cell proliferation assay (MTS)
Procedure: as §1, §4

HGC27 = experiment: Cell proliferation assay (MTS); assay type: cell-based, human
Procedure: as §1, §2

KATOIII = experiment: Cell proliferation assay (MTS); assay type: cell-based, human
Procedure: as §1, §4

H23 = experiment: Cell proliferation assay (MTS); assay type: cell-based, human
Procedure: as §3, §2

PANC0327 = experiment: Cell proliferation assay (MTS); assay type: cell-based, human
Procedure: as §3, §2

SUM52PE = experiment: Cell proliferation assay (MTS); assay type: cell-based, human
Procedure: as §1, §2

HCC1419 = experiment: Cell proliferation assay (MTS); assay type: cell-based, human
Procedure: as §1, §2

JJN3 = experiment: Cell proliferation assay (MTS); assay type: cell-based, human
Procedure: as §1, §2

SU8686 = experiment: Cell proliferation assay (MTS); assay type: cell-based, human
Procedure: as §1, §4

H838 = experiment: Cell proliferation assay (MTS); assay type: cell-based, human
Procedure: as §1, §2

SKHEP1 = experiment: Cell proliferation assay (MTS); assay type: cell-based, human
Procedure: as §1, §4

LUDLU1 = experiment: Cell proliferation assay (MTS); assay type: cell-based, human
Procedure: as §1, §4

MCF7MDR+ = experiment: Cell proliferation assay (MTS); assay type: cell-based, human
Procedure: as §3, §2

H460DNP53 = experiment: Cell proliferation assay (MTS); assay type: cell-based, human
Procedure: as §1, §2

H1437 = experiment: Cell proliferation assay (MTS); assay type: cell-based, human
Procedure: as §1, §2

[1] = Homo sapiens, Stomach, PIK3CA WT
[2] = Homo sapiens, Breast, PIK3CA MUT
[3] = Homo sapiens, Breast, PIK3CA WT

With `CCn1nc(C2CCN(C(=O)CCO)CC2)nc1-c1cnc(N)c(-c2nnc(C(C)(C)C)o2)n1` [Example 3, 1-(4-(5-(5-amino-6-(5-tert-butyl-1,3,4-oxadiazol-2-yl)pyrazin-2-yl)-1-ethyl-1H-1,2,4-triazol-3-yl)piperidin-1-yl)-3-hydroxypropan-1-one] the Category (SW948) was “Sensitive (sensitive (GI50<=1.0 μM))”, the GI50 (SW948; Homo sapiens, Colon, PIK3CA MUT) was 0.911 µM and the Category (PNT1A) was “Resistant (resistant (GI50>1.0 μM))”. The GI50 (PNT1A; Homo sapiens, Prostate, PIK3CA WT) was 2.17 µM, the Category (RS411) was “Sensitive (sensitive (GI50<=1.0 μM))” and the GI50 (RS411; Homo sapiens, RS4-11, Blood/lymph, PIK3CA WT) was 0.0903 µM. For the same molecule, the Category (HX147) was “Resistant (resistant (GI50>1.0 μM))”, the GI50 (HX147; Homo sapiens, Lung, PIK3CA WT) was 30 µM and the Category (H2085) was “Resistant (resistant (GI50>1.0 μM))”. For the same molecule, the GI50 (H2085; Homo sapiens, Lung, PIK3CA WT) was 1.83 µM, the Category (AZ521) was “Resistant (resistant (GI50>1.0 μM))” and the GI50 (AZ521; Homo sapiens, AZ-521, Duodenum, PIK3CA WT) was 2.06 µM. For the same molecule, the Category (SNU398) was “Resistant (resistant (GI50>1.0 μM))”, the GI50 (SNU398; Homo sapiens, SNU-398, Liver, PIK3CA WT) was 30 µM and the Category (MDAMB157) was “Resistant (resistant (GI50>1.0 μM))”. For the same molecule, the GI50 (MDAMB157; Homo sapiens, MDA-MB-157, Breast, PIK3CA WT) was 30 µM, the Category (CALU6) was “Resistant (resistant (GI50>1.0 μM))” and the GI50 (CALU6; Homo sapiens, Calu-6, Lung, PIK3CA WT) was 26.2 µM. The Category (PC9) was “Resistant (resistant (GI50>1.0 μM))”, the GI50 (PC9; Homo sapiens, PC-9, Lung, PIK3CA WT) was 30 µM and the Category (N87) was “Resistant (resistant (GI50>1.0 μM))”. For the same molecule, the GI50 (N87; [1]) was 1.3 µM, the Category (H520; H520) was “Resistant (resistant (GI50>1.0 μM))” and the GI50 (H520; Homo sapiens, NCI-H520) was 6.62 µM. For the same molecule, the Category (OCUM1) was “Resistant (resistant (GI50>1.0 μM))”, the GI50 (OCUM1; [1]) was 2.33 µM and the Category (H526) was “Resistant (resistant (GI50>1.0 μM))”. The GI50 (H526; Homo sapiens, NCI-H526, Lung, PIK3CA WT) was 30 µM, the tumour growth (MCF7 xenograft) was “caused some tumour regression” and the Category (T47D) was “Sensitive (sensitive (GI50<=1.0 μM))”. The GI50 (T47D; [2]) was 0.198 µM, the Category (SKMES1) was “Resistant (resistant (GI50>1.0 μM))” and the GI50 (SKMES1; Homo sapiens, SK-MES-1, Lung, PIK3CA WT) was 19.5 µM. The Category (A549) was “Resistant (resistant (GI50>1.0 μM))”, the GI50 (A549; Homo sapiens, Lung, PIK3CA WT) was 10.2 µM and the Category (MOLM16) was “Resistant (resistant (GI50>1.0 μM))”. For the same molecule, the GI50 (MOLM16; Homo sapiens, Blood/lymph, PIK3CA WT) was 4.6 µM, the Category (HCC1806) was “Resistant (resistant (GI50>1.0 μM))” and the GI50 (HCC1806; [3]) was 16.7 µM. For the same molecule, the Category (MDAMB468) was “Resistant (resistant (GI50>1.0 μM))”, the GI50 (MDAMB468; Homo sapiens, MDA-MB-468, Breast, PIK3CA WT) was 9.33 µM and the Category (HCC1954) was “Sensitive (sensitive (GI50<=1.0 μM))”. For the same molecule, the GI50 (HCC1954; [2]) was 0.879 µM, the Category (MKN74) was “Resistant (resistant (GI50>1.0 μM))” and the GI50 (MKN74; Homo sapiens, MKN-74, Stomach, PIK3CA WT) was 30 µM. For the same molecule, the Category (H2286; H2286) was “Resistant (resistant (GI50>1.0 μM))”, the GI50 (H2286; Homo sapiens, NCI-H2286) was 20 µM and the Category (HGC27) was “Resistant (resistant (GI50>1.0 μM))”. For the same molecule, the GI50 (HGC27; Homo sapiens, HGC-27, Stomach, PIK3CA MUT) was 1.5 µM, the Category (KATOIII) was “Resistant (resistant (GI50>1.0 μM))” and the GI50 (KATOIII; Homo sapiens, KATO III, Stomach, PIK3CA WT) was 9.15 µM. For the same molecule, the Category (H23) was “Resistant (resistant (GI50>1.0 μM))”, the GI50 (H23; Homo sapiens, NCI-H23, Lung, PIK3CA WT) was 12.3 µM and the Category (PANC0327) was “Resistant (resistant (GI50>1.0 μM))”. For the same molecule, the GI50 (PANC0327; Homo sapiens, PANC-03-27, Pancreas, PIK3CA WT) was 8.03 µM, the Category (SUM52PE) was “Resistant (resistant (GI50>1.0 μM))” and the GI50 (SUM52PE; [3]) was 1.15 µM. The Category (HCC1419) was “Sensitive (sensitive (GI50<=1.0 μM))”, the GI50 (HCC1419; [3]) was 0.78 µM and the Category (JJN3) was “Resistant (resistant (GI50>1.0 μM))”. The GI50 (JJN3; Homo sapiens, JJN-3, Blood/lymph, PIK3CA WT) was 30 µM, the Category (SU8686) was “Resistant (resistant (GI50>1.0 μM))” and the GI50 (SU8686; Homo sapiens, SU.86.86, Pancreas, PIK3CA WT) was 18 µM. For the same molecule, the Category (H838) was “Resistant (resistant (GI50>1.0 μM))”, the GI50 (H838; Homo sapiens, NCI-H838, Lung, PIK3CA WT) was 30 µM and the Category (SKHEP1) was “Resistant (resistant (GI50>1.0 μM))”. The GI50 (SKHEP1; Homo sapiens, SK-HEP1, Liver, PIK3CA WT) was 30 µM, the Category (LUDLU1) was “Resistant (resistant (GI50>1.0 μM))” and the GI50 (LUDLU1; Homo sapiens, LUDLU-1, Lung, PIK3CA WT) was 4.65 µM. The Category (MCF7MDR+) was “Resistant (resistant (GI50>1.0 μM))”, the GI50 (MCF7MDR+; [3]) was 14.5 µM and the Category (H460DNP53) was “Resistant (resistant (GI50>1.0 μM))”. For the same molecule, the GI50 (H460DNP53; Homo sapiens, Lung, PIK3CA WT) was 18 µM, the Category (H1437) was “Resistant (resistant (GI50>1.0 μM))” and the GI50 (H1437; Homo sapiens, NCI-H1437, Lung, PIK3CA WT) was 30 µM.
